In experiment [1] the test system is Mus musculus. The experiment is described as follows: In vivo inhibition of OTUB1 in human NCI-H1975 cells xenografted BALB/c nude mouse model assessed as decrease in OTUB1 level at 15 mg/kg/day, po measured after 5 days by Western blot analysis. Format: functional, organism-based. The settings on record: time 5.0 day.
Experiment [2] concerns Mus musculus. As to the kind of experiment: In vivo inhibition of USP8 in NCI-H1975 cells xenografted BALB/c nude mouse model assessed as decrease in EGFR level at 15 mg/kg/day, po measured after 5 days by Western blot analysis. Format: functional, organism-based. Particulars: time 5.0 day.
The next experiment concerns NCI-H1975. The experiment is described as follows: Antitumor activity against human NCI-H1975 cells xenografted in BALB/c nude mouse model assessed as reduction of total tumor weight at 5 mg/kg, ip bid for 2 weeks. Format: functional, organism-based.
Experiment [3] addresses Ubiquitin thioesterase OTUB1 (Homo sapiens, UniProt Q96FW1). The experiment is described as follows: Inhibition of N-terminal His-6 tagged OTUB1 (40 to 271 residues) (unknown origin) expressed in Escherichia coli BL21 (DE3) cells at […] using Ub-Rho measured after 0.5 to 3 hrs by fluorescence based Plate reader method relative to control. The settings on record: dose 2.5 µM, time 0.5-3 hrs.

The source made the active and inactive calls. The rule behind the calls is not given here.

Ubiquitin thioesterase OTUB1, sequence (Q96FW1 whole entry, the tested form may be a part): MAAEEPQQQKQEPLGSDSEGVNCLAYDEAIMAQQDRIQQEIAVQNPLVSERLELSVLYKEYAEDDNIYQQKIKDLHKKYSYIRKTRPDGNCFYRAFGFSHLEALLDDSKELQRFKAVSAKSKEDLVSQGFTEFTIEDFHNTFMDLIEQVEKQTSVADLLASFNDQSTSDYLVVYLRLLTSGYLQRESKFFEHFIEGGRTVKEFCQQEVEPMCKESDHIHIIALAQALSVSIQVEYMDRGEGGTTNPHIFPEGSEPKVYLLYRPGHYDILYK

Take `CN1CC[C@@H](Oc2ccc(F)c(-c3nc4c(o3)C(=O)c3ccccc3C4=O)c2Cl)C1`: the outcome in the experiment on Mus musculus [1], with Mus musculus [2] and in the experiment on NCI-H1975 was Active.
`O=C1c2ccccc2C(=O)c2oc(-c3cccnc3)nc21` displayed an inhibition in experiment [3] of 100%.

The record behind these values is ChEMBL document CHEMBL5108067, “Discovery of Potent OTUB1/USP8 Dual Inhibitors Targeting Proteostasis in Non-Small-Cell Lung Cancer” (J Med Chem, 2022).
